Data as given in patent publication US8883841B2, “Oncogenic ras-specific cytotoxic compound and methods of use thereof” (The Board of Regents of the University of Texas System, priority 2005, dated 2014).
“Also recorded” adds a separate entry of the source.

Experiments:
H322 cells = test: Cell viability, H322 lung cancer cells; assay type: cell-based, human
H2087 = test: Cell viability, H2087 lung cancer cells; assay type: cell-based, human
H23 = test: Cell viability, H23 lung cancer cells; assay type: cell-based, human; details: H23, Lung
HT29 = test: NCI in-vitro testing, HT29 (Colon Cancer)
HS 578T = test: NCI in-vitro testing, HS 578T (Breast Cancer)
MALME-3M = test: NCI in-vitro testing, MALME-3M (Melanoma)
LOX IMVI = test: NCI in-vitro testing, LOX IMVI (Melanoma)
SK-MEL-2 = test: NCI in-vitro testing, SK-MEL-2 (Melanoma)
H460 cells = test: cells; details: Homo sapiens, NCI-H460, read-out: IC50 (−LogM), H460, Lung (converted)
SK-MEL-5 = test: NCI in-vitro testing, SK-MEL-5 (Melanoma)
NCI-H460 = test: NCI in-vitro testing, NCI-H460 (Non-Small Cell Lung Cancer)
M14 = test: NCI in-vitro testing, M14 (Melanoma)
SR = test: NCI in-vitro testing, SR (Leukemia); assay type: cell-based
SF-539 = test: NCI in-vitro testing, SF-539 (CNS Cancer)
COLO 205 = test: NCI in-vitro testing, COLO 205 (Colon Cancer)
NCI-H226 = test: NCI in-vitro testing, NCI-H226 (Non-Small Cell Lung Cancer)

O=Cc1cn(Cc2ccc(Cl)cc2)c2ccccc12 [Oncrasin K001, 1H-Indole-3-carboxaldehyde, 1-[(4-chlorophenyl)methyl]-(9CI)]
IC50 (−LogM) (H322 cells; H322, Lung): 4.5 −LogM
toxicity to H322 cells (H322 cells; at 33 μM (the highest concentration tested), ras wild-type): not toxic
effect on H322 cells (H322 cells; wild-type Ras, listed as Oncrasin-1): minimal effect; also recorded: not effective
IC50 (−LogM) (H2087; H2087, Lung): >4.5 −LogM
effect on H2087 cells (H2087; mutant N-Ras): minimal effect
IC50 (−LogM) (H23): >4.5 −LogM

O=Cc1cn(Cc2cccc(Cl)c2)c2ccccc12 [Oncrasin K027, 1-(3-chlorobenzyl)-1H-indole-3-carbaldehyde]
TGI (HT29; HT29): 2.01E−6 Molar
Percent Growth (HT29; HT29, Log10 Concentration −4.0 Molar): −66%
Percent Growth (HT29; HT29, Log10 Concentration −5.0 Molar): 29%
Percent Growth (HT29; HT29, Log10 Concentration −6.0 Molar): 68%
Percent Growth (HT29; HT29, Log10 Concentration −7.0 Molar): 79%
Percent Growth (HT29; HT29, Log10 Concentration −8.0 Molar): 103%
GI50 (HT29; Homo sapiens, HT-29): 0.00183 µM
CC50 (HT29; Homo sapiens, HT-29, read-out: LC50): 6.76 µM
TGI (HS 578T; HS 578T): 2.75E−6 Molar
Percent Growth (HS 578T; HS 578T, Log10 Concentration −4.0 Molar): −38%
Percent Growth (HS 578T; HS 578T, Log10 Concentration −5.0 Molar): 30%
Percent Growth (HS 578T; HS 578T, Log10 Concentration −6.0 Molar): 91%
Percent Growth (HS 578T; HS 578T, Log10 Concentration −7.0 Molar): 98%
Percent Growth (HS 578T; HS 578T, Log10 Concentration −8.0 Molar): 105%
GI50 (HS 578T; Homo sapiens, Hs-578T): 4.68 µM
CC50 (HS 578T; Homo sapiens, Hs-578T, read-out: LC50): > 100 µM
GI50 (MALME-3M; Homo sapiens, Malme-3M): 5.17 µM
CC50 (MALME-3M; Homo sapiens, Malme-3M, read-out: LC50): 82 µM
TGI (MALME-3M; MALME-3M): 2.37E−5 Molar
Percent Growth (MALME-3M; MALME-3M, Log10 Concentration −4.0 Molar): −58%
Percent Growth (MALME-3M; MALME-3M, Log10 Concentration −5.0 Molar): 35%
Percent Growth (MALME-3M; MALME-3M, Log10 Concentration −6.0 Molar): 88%
Percent Growth (MALME-3M; MALME-3M, Log10 Concentration −7.0 Molar): 114%
Percent Growth (MALME-3M; MALME-3M, Log10 Concentration −8.0 Molar): 105%
TGI (LOX IMVI): 1.68E−5 Molar
GI50 (LOX IMVI; Homo sapiens): 0.0448 µM
CC50 (LOX IMVI; Homo sapiens, read-out: LC50): 47.2 µM
Percent Growth (LOX IMVI; Log10 Concentration −4.0 Molar): −86%
Percent Growth (LOX IMVI; Log10 Concentration −5.0 Molar): 25%
Percent Growth (LOX IMVI; Log10 Concentration −6.0 Molar): 96%
Percent Growth (LOX IMVI; Log10 Concentration −7.0 Molar): 95%
Percent Growth (LOX IMVI; Log10 Concentration −8.0 Molar): 102%
GI50 (SK-MEL-2; Homo sapiens, SK-MEL-2): 15.8 µM
CC50 (SK-MEL-2; Homo sapiens, SK-MEL-2, read-out: LC50): 48.2 µM
TGI (SK-MEL-2; SK-MEL-2): 5.94E−8 Molar
Percent Growth (SK-MEL-2; SK-MEL-2, Log10 Concentration −4.0 Molar): −64%
Percent Growth (SK-MEL-2; SK-MEL-2, Log10 Concentration −5.0 Molar): −20%
Percent Growth (SK-MEL-2; SK-MEL-2, Log10 Concentration −6.0 Molar): 67%
Percent Growth (SK-MEL-2; SK-MEL-2, Log10 Concentration −7.0 Molar): 84%
Percent Growth (SK-MEL-2; SK-MEL-2, Log10 Concentration −8.0 Molar): 98%
IC50 (H460 cells): 0.00398 µM
GI50 (SK-MEL-5; Homo sapiens, SK-MEL-5): 4.97 µM
CC50 (SK-MEL-5; Homo sapiens, SK-MEL-5, read-out: LC50): 45.5 µM
TGI (SK-MEL-5; SK-MEL-5): 1.95E−5 Molar
Percent Growth (SK-MEL-5; SK-MEL-5, Log10 Concentration −4.0 Molar): −97%
Percent Growth (SK-MEL-5; SK-MEL-5, Log10 Concentration −5.0 Molar): 40%
Percent Growth (SK-MEL-5; SK-MEL-5, Log10 Concentration −6.0 Molar): 74%
Percent Growth (SK-MEL-5; SK-MEL-5, Log10 Concentration −7.0 Molar): 92%
Percent Growth (SK-MEL-5; SK-MEL-5, Log10 Concentration −8.0 Molar): 95%
TGI (NCI-H460): 3.79E−5 Molar
GI50 (NCI-H460; Homo sapiens, NCI-H460): 0.0888 µM
CC50 (NCI-H460; Homo sapiens, NCI-H460, read-out: LC50): > 100 µM
Percent Growth (NCI-H460; Log10 Concentration −4.0 Molar): −9%
Percent Growth (NCI-H460; Log10 Concentration −5.0 Molar): 13%
Percent Growth (NCI-H460; Log10 Concentration −6.0 Molar): 20%
Percent Growth (NCI-H460; Log10 Concentration −7.0 Molar): 48%
Percent Growth (NCI-H460; Log10 Concentration −8.0 Molar): 79%
GI50 (M14; Homo sapiens, M14): 5.16 µM
CC50 (M14; Homo sapiens, M14, read-out: LC50): 55.9 µM
TGI (M14; M14): 2.03E−5 Molar
Percent Growth (M14; M14, Log10 Concentration −4.0 Molar): −79%
Percent Growth (M14; M14, Log10 Concentration −5.0 Molar): 35%
Percent Growth (M14; M14, Log10 Concentration −6.0 Molar): 87%
Percent Growth (M14; M14, Log10 Concentration −7.0 Molar): 94%
Percent Growth (M14; M14, Log10 Concentration −8.0 Molar): 95%
TGI (SR): 4.26E−8 Molar
GI50 (SR; Homo sapiens): < 0.01 µM
Percent Growth (SR; Log10 Concentration −4.0 Molar): −71%
Percent Growth (SR; Log10 Concentration −5.0 Molar): −18%
Percent Growth (SR; Log10 Concentration −6.0 Molar): −71%
Percent Growth (SR; Log10 Concentration −7.0 Molar): −25%
Percent Growth (SR; Log10 Concentration −8.0 Molar): 43%
GI50 (SF-539; Homo sapiens, SF-539): 10.9 µM
CC50 (SF-539; Homo sapiens, SF-539, read-out: LC50): 86.6 µM
TGI (SF-539; SF-539): 2.70E−5 Molar
Percent Growth (SF-539; SF-539, Log10 Concentration −4.0 Molar): −73%
Percent Growth (SF-539; SF-539, Log10 Concentration −5.0 Molar): 55%
Percent Growth (SF-539; SF-539, Log10 Concentration −6.0 Molar): 104%
Percent Growth (SF-539; SF-539, Log10 Concentration −7.0 Molar): 110%
Percent Growth (SF-539; SF-539, Log10 Concentration −8.0 Molar): 108%
TGI (COLO 205; COLO 205): 1.58E−5 Molar
Percent Growth (COLO 205; COLO 205, Log10 Concentration −4.0 Molar): −72%
Percent Growth (COLO 205; COLO 205, Log10 Concentration −5.0 Molar): 18%
Percent Growth (COLO 205; COLO 205, Log10 Concentration −6.0 Molar): 51%
Percent Growth (COLO 205; COLO 205, Log10 Concentration −7.0 Molar): 93%
Percent Growth (COLO 205; COLO 205, Log10 Concentration −8.0 Molar): 88%
GI50 (COLO 205; Homo sapiens, COLO 205): 1.05 µM
CC50 (COLO 205; Homo sapiens, COLO 205, read-out: LC50): 5.69 µM
GI50 (NCI-H226; Homo sapiens, NCI-H226): < 0.01 µM
CC50 (NCI-H226; Homo sapiens, NCI-H226, read-out: LC50): 0.501 µM
TGI (NCI-H226; NCI-H226): 4.46E−8 Molar
Percent Growth (NCI-H226; NCI-H226, Log10 Concentration −4.0 Molar): −65%
Percent Growth (NCI-H226; NCI-H226, Log10 Concentration −5.0 Molar): −59%
Percent Growth (NCI-H226; NCI-H226, Log10 Concentration −6.0 Molar): −62%
Percent Growth (NCI-H226; NCI-H226, Log10 Concentration −7.0 Molar): −22%
Percent Growth (NCI-H226; NCI-H226, Log10 Concentration −8.0 Molar): 40%
